How the values were obtained:
GR [1] = biological target: T1, GR (Homo sapiens, UniProt P04150); assay: Transactivation assay, MMTV promoter luciferase in HeLa cells; format: cell-based; set-up: endogenous in cells; host or cells: HeLa (ATCC) stably expressing MMP1- or MMTV-promoter luciferase; conditions: for EC50: 20 h, geometric mean
T1 sequence (P04150 1-777): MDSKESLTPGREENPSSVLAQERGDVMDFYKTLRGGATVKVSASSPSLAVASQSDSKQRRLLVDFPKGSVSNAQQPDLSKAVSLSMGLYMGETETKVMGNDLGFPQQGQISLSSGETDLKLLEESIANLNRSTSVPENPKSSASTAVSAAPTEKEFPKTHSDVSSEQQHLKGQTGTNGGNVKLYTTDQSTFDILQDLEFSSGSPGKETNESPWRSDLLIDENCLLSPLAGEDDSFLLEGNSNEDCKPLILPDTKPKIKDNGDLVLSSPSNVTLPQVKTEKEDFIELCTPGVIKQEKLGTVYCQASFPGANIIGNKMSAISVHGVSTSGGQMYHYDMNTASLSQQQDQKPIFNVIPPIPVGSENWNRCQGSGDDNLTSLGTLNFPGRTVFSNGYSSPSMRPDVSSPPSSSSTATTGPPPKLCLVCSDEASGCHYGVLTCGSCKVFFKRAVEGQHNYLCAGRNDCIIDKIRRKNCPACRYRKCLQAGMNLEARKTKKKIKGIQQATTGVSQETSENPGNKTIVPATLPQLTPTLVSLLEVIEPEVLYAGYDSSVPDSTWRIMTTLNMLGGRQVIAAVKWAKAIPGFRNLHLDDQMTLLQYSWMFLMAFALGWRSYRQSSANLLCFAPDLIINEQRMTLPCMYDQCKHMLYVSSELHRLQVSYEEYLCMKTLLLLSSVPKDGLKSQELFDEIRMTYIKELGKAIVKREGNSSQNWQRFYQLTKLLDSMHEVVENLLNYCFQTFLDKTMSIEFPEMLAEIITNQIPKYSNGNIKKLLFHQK
Protocol: A HeLa cell line stably expressing luciferase under the control of the mouse mammary tumour virus (MMTV) promoter was generated. When the GR is activated by addition of a GR agonist, it forms a homodimer and binds to the MMTV promoter, t inducing transcription of the luciferase reporter gene. Briefly, cells were incubated with test compounds in culture medium containing charcoal-filtered fetal bovine serum for 20 h 37 °C 5% CO2. Finally, luciferase activity was detected luminometrically after addition of specific substrate to the cells.
(§1) IC50 of test compounds was determined by 10-point titrations in duplicates. IC50 values and other parameters were calculated by sigmoidal curve fitting in Assay Explorer.

[2] = test system: LPS-induced TNF-alpha release in PBMCs; assay: TNF-alpha inhibition assay, mouse PBMCs; format: cell-based; conditions: for EC50: geometric mean
Protocol: PMBCs were isolated from human buffy coats or animal whole blood (EDTA-treated). Buffy coats from anonymized healthy adult blood donors were obtained from the Blood Bank of the National University Hospital Copenhagen in accordance with national legislation. Whole blood from mice (obtained from Charles River) was sampled at the animal facility at LEO Pharma and whole blood from pigs was sourced from ScanTox. Test compounds and PBMCs were incubated with 1 µg/ml LPS (Sigma) overnight at 37 °C in HEPES and Glutamax-containing RPMI medium supplemented with either 0.5% human serum albumin (human PBMCs) or 10% fetal bovine serum (mouse and pig PBMCs) and penicillin/streptomycin. TNF-alpha was measured using AlphaLISA (Perkin Elmer).
as §1

[3] = test system: spleen weight, plasma osteocalcin, body weight; assay: TPA-induced skin inflammation in mice, systemic side effects; format: in vivo, mouse; conditions: for Reduction of body weight gain, spleen weight, and plasma osteocalcin levels: indicating systemic exposure; for Osteocalcin concentration ID50 / Osteocalcin concentration Imax: plasma; for Spleen weight ID50 / Spleen weight Imax: topical; for Suppression of osteocalcin levels at efficacious doses on skin inflammation: mouse TPA model
Protocol: (§2) Female Balb/c mice of 7 to 8 weeks old were obtained from Charles River, Germany and acclimatized for at least 1 week. Skin inflammation was induced by repeated topical application of TPA (20 μL of 0.01% TPA in acetone; 10 μL to each side of ear) on days 1, 3, 5, 8 and 10.
(§3) Treatments were performed by topical application of either vehicle (90% acetone, 10% transcutol), Treatments were applied twice daily on days 8, 9, 10, and once on day 11 (20–10 μL to each side of ear) with at least 5 h between the first and second treatment. TPA challenge on days 8 and 10 was performed at least 1 h after the first treatment. On day 11, animals were sacrificed 2 h after the last dosing. Blood was sampled by cardiac puncture from animals anaesthetized with isoflurane. Thereafter, ear biopsies were taken with a biopsy punch (8 mm diameter), weighed and stored at – 80 °C. Plasma osteocalcin levels were analyzed by EIA (rat-MID, IDS, UK). Effective inhibitory doses (ID50) were determined from a sigmoid I(max) model in Phoenix64, Pharsight, Certara. Therapeutic Index (TI) was calculated either as ID50 for spleen weight reduction or ID50 for blood osteocalcin concentrations, divided by ID50 for ear weight reduction.

GR [4] = biological target: T1, GR; assay: Transrepression assay, PMA-induced MMP1 promoter luciferase in HeLa cells; format: cell-based; set-up: endogenous in cells; host or cells: HeLa (ATCC) stably expressing MMP1- or MMTV-promoter luciferase; conditions: for EC50: 18 h, geometric mean
Protocol: Assays were adopted from a method reported by Schäcke et al.[39] and HeLa cells were obtained from the American Type Culture Collection (ATCC). Transrepression assay: A HeLa cell line stably expressing luciferase under the control of the human Matrix Metallopeptidase 1 (MMP1) promoter was generated. Upon binding to the GR, […], preventing it from binding the MMP1 promoter, resulting in inhibition of luciferase transcription and activity. Briefly, cells were incubated in culture medium containing charcoal-filtered fetal bovine serum with 5 nM PMA (phorbol 12-myristate 13-acetate) for 18 h with or without test compounds. Then, luciferase activity was detected luminometrically after addition of specific substrate to the cells.
as §1

[5] = test system: TPA-induced skin inflammation; assay: TPA-induced skin inflammation in mice, efficacy; format: in vivo; conditions: TPA mouse model; for Ear biopsy weight ID50 (API concentration in formulation) / Ear biopsy weight Imax: topical, CV (%) in brackets
Protocol: as §2, §3
RNA was extracted from biopsies and qPCR was performed using TaqMan gene expression assays (Fkbp5-Mm00487406_m1, Tsc22d3 (Gilz)-Mm00726417_s1, Actb-Mm00607939_s1, Pgk1-Mm00435617_m1, Tbp-Mm00446971_m1, Ubc-Mm02525934_g1). Gene expression of Fkbp5 and Tsc22d3 (Gilz) was normalized to the geometric mean of the reference genes Actb, Pgk1, Tbp and Ubc.

[6] = TPA mouse model, CV (%) in brackets

Row | SMILES | Emax (GR [1]; MMTV promoter, HeLa cells) | EC50 (GR [1]; MMTV promoter, HeLa cells) | Emax ([2]; PBMC) | EC50 ([2]; PBMC) | Therapeutic index (Osteocalcin ID50/Ear ID50) ([3]; TPA mouse model) | Therapeutic index (Spleen ID50/Ear ID50) ([3]; TPA mouse model) | Reduction of body weight gain, spleen weight, and plasma osteocalcin levels ([3]; TPA mouse model) | Osteocalcin concentration ID50 [3, 6] | Osteocalcin concentration Imax [3, 6] | Spleen weight ID50 [3, 6] | Spleen weight Imax [3, 6] | Suppression of osteocalcin levels at efficacious doses on skin inflammation [3] | Emax (GR [4]) | EC50 (GR [4]) | Ear biopsy weight ID50 (API concentration in formulation) [5] | Ear biopsy weight Imax [5] | also measured
1 | CCC(=O)O[C@]1(C(=O)CCl)[C@@H](C)C[C@H]2[C@@H]3CCC4=CC(=O)C=C[C@]4(C)[C@@]3(F)[C@@H](O)C[C@@]21C [CP, Clobetasol Propionate] | 110% | 250 pM | 95% | 150 pM | 43 | 17 | dose-dependent reduction | 64 (17) µg/mL | 88 (4) % | 26 (27) µg/mL | 70 (8) % | did | 90% | 64 pM | 1.5 (69) µg/mL | 67 (14) % | 
2 | C[C@H](NC(=O)[C@H]1CCCO1)[C@H](Oc1ccc(C(=O)O[C@H]2CCCN(C(=O)[C@H]3COC(=O)C3)C2)cc1)c1ccc(C2CC2)cc1 [LEO 134310] |  | 410000 pM |  |  | > 200 | 49 | not—or only to a lesser extent |  |  |  | 42 (56) % | did not suppress osteocalcin levels |  | 1200 pM | 500 (250) µg/mL | 64 (39) % | Transactivation Emax (GR [1]; MMTV promoter, HeLa cells): 95%; Transactivation EC50 relative to concentration needed for transrepression (GR [1]; higher concentration than needed for transrepression): more than 300 fold; Inhibition of LPS-induced TNF-alpha release Emax [2]: 102%; EC50 [2]: 580 pM; Higher therapeutic index (osteocalcin ID50 to ear weight ID50) compared to CP and BMV ([3]; TPA mouse model): > 5 fold; Higher therapeutic index (spleen weight ID50 to ear weight ID50) compared to CP and BMV ([3]; TPA mouse model): 2 fold; Spleen weight ID50 (extrapolated) ([3]; TPA mouse model, ID50 could not be determined, value extrapolated, CV (%) in brackets): 25,000 (110) µg/mL; Transrepression Emax (GR [4]): 100%; Less potent than BMV, reduction in ear biopsy weight [5]: ~100 fold; Less potent than CP, reduction in ear biopsy weight [5]: approximately 300 fold
3 | CCCCC(=O)O[C@]1(C(=O)CO)[C@@H](C)C[C@H]2[C@@H]3CCC4=CC(=O)C=C[C@]4(C)[C@@]3(F)[C@@H](O)C[C@@]21C [BMV, Betamethasone Valerate] | 120% | 2600 pM | 95% | 220 pM | 39 | 21 | dose-dependent reduction | 200 (24) µg/mL | 74 (10) % | 110 (25) µg/mL | 58 (9) % | did | 78% | 570 pM | 5.1 (73) µg/mL | 69 (17) % | 
